Source: patent publication US20210393645A1, “TREATMENT FOR PROGRESSIVE MULTIPLE SCLEROSIS” (UTI LIMITED PARTNERSHIP, priority 2016, published 2021)
Counter-ions that a name gives are not always drawn.

How the values were obtained:
human neurons [1] = assay: Iron (FeSO4) mediated neurotoxicity screening, MAP-2 positive neurons counted; format: cell-based
In short: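 Fetal human neurons (15-20 wk), plated with cytosine arabinoside, were pre-incubated 1 h with compounds (10 mM DMSO stocks) before FeSO4 at 25-50 μM final. Cells fixed a day later; MAP-2 immunostaining plus Hoechst nuclei imaged automatically, sites per well averaged; quadruplicates.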

human neurons [2] = assay: Mitochondrial damage to neurons induced by rotenone; format: cell-based; conditions: rotenone 10 μM, drug 10 μM
Procedure: Human neurons were isolated from brain tissues of therapeutically aborted 15-20 week old fetuses, in accordance with ethics approval of the University of Calgary ethics committee, after written informed consent of the pregnant donors. Neurons were isolated as previously described (Vecil et al., 2000) brain specimens were washed in phosphate buffered saline (PBS) to remove blood, followed by removal of meninges. […] Thereafter, the digestion was stopped by addition of 4 ml fetal calf serum (FCS). The solution was filtered through a 132 μm filter and centrifuged (three times, 1,200 rpm, 10 min). Cells were cultured in feeding medium of minimal essential medium (MEM) supplemented with 10% fetal bovine serum (FBS), 1 μM sodium pyruvate, 10 μM glutamine, 1× non-essential amino acids, 0.1% dextrose and 1% penicillin/streptomycin (all culture supplements from Invitrogen, Burlington, Canada). […] For experiments, the neuron-enriched cultures were retrypsinized and cells were plated in poly-L-ornithine pre-coated 96-well plates at a density of 100,000 cells/well in 100 μl of the complete medium supplemented with cytosine arabinoside. […] All conditions were performed in quadruplicates. A day later cells were fixed using 4% paraformaldehyde (PFA) and stored in PBS in 4° C.
The iron stock solution was prepared using 27.8 mg iron(II) sulfate heptahydrate (FeSO4) (Sigma-Aldrich, Oakville, Canada), 10 μl of 17.8M sulfuric acid and 10 ml deionized distilled water. After filtering with a 0.2 μm filter, FeSO4 was added to cells in a final concentration of 25-50 μM in a volume of 50 μl medium to the cells. Rotenone was dissolved in dimethyl sulfoxide (DMSO) and used in a final concentration of 10 μM.

[3] = Hydroxyl radical antioxidant capacity (HORAC) assay; format: biochemical; conditions: vs 12.5 μM gallic acid (=1), 60 min
Procedure: In this assay, hydroxyl radicals generated by a Co(II)-mediated Fenton-like reaction oxidize fluorescein causing loss of fluorescence (Ou et al., J Argricultural Food Chemistry 50:2772-2777, 2002). The presence of an anti-oxidant reduces the loss of fluorescence and this can be monitored every 5 min over a period of 60 min with a Spectra Max Gemini XS plate reader (Molecular Devices, Sunnyvale, Calif., USA) and the software SoftMax Pro version 5. For monitoring fluorescence, we used an excitation wavelength of λ=485 nm and an emission wavelength of λ=520 nm.
The biochemical cell free hydroxyl radical antioxidant capacity (HORAC) assay investigates the prevention of hydroxyl radical mediated oxidation of to fluorescein in comparison to the strong anti-oxidant gallic acid. The generation of hydroxyl radicals by a cobalt-driven Fenton-like reaction oxidizes fluorescein with progressive loss of fluorescence. The presence of an anti-oxidant reduces the loss of fluorescence over time.
We compared the area under the curve of test compounds to that elicited by gallic acid to obtain the gallic acid equivalent (GAE).

B-cells = assay: TNF-α release of activated B-cells (ELISA); format: cell-based, human; conditions: BCR/anti-CD40L/IL-4 activation
Procedure: Venous blood from healthy volunteers was obtained and peripheral blood mononuclear cells (PBMCs) were isolated by Ficoll gradient centrifugation (1800 RPM, 30 min). From PBMCs, B-cells were isolated by positive selection with CD19 directed microbeads (Stemcell Technologies). Purity was assessed by FACS after staining for CD19 (Stemcell Technologies). Cells were plated in a concentration of 2.5×10^5 cells/well in X-VIVO™ medium (Lonza) supplemented with 1% penicillin/streptomycin and 1% Glutamax and treated with drugs for 1 h. […] Medium as well as respective drugs were re-added followed by application of ^3H-thymidine in a concentration of 1 μCi per well to investigate proliferation.

Biozzi ABH mice = assay: Chronic EAE in Biozzi ABH mice (spinal cord homogenate); format: in vivo, mouse; conditions: treatment from onset of clinical signs

CN(C)CCCN1c2ccccc2CCc2ccc(Cl)cc21 [CLOMIPRAMINE HYDROCHLORIDE]
viability at 10 µM (human neurons [1]; Homo sapiens, Neuron, drug 10 μM 1 h before FeSO4 25 or 50 μM, MAP-2 neurons after 24 h, read-out: Drug % control (mean): number of neurons normalized to untreated control): 107% | concentration from which neuroprotection against iron toxicity is significant (human neurons [1]; concentration response): 100 nM | Drug % control (mean): number of neurons normalized to untreated control (human neurons [1]; drug 10 μM 1 h before FeSO4 25 or 50 μM, MAP-2 neurons after 24 h, HYDROCHLORIDE): 107.30% | protection from FeSO4-mediated neurotoxicity (in words) (human neurons [1]; drug 10 μM, human neurons): strong protection | neurotoxicity by rotenone (mitochondrial damage) (human neurons [2]): trended towards a protective activity | mean HORAC-GAE (gallic acid equivalents) [3]: 2.1 | concentration from which production of TNF-α of activated B-cells is reduced (B-cells): 2 µM | clinical severity in chronic EAE (Biozzi ABH mice): reduced clinical severity
